Experiment: mn = molality of the nth substance listed, in mol/kg
Conditions: 100 kPa, Liquid; for mass density: Vibrating tube method; for speed of sound: Frequency=2 MHz, Linear variable-path acoustic interferometer

CCCCn1cc[n+](C)c1.CC[C@H](C)[C@H](N)C(=O)[O-] [1-butyl-3-methyl-1H-imidazolium L-isoleucinate] + O
Conditions | mass density [kg/m3] | speed of sound [m/s]
293.15 K, m1 = 0.02906 | 999.041 | –
293.15 K, m1 = 0.04398 | 999.456 | –
293.15 K, m1 = 0.05752 | 999.834 | –
293.15 K, m1 = 0.0722 | 1000.24 | –
293.15 K, m1 = 0.07899 | 1000.43 | –
293.15 K, m1 = 0.1182 | 1001.49 | –
293.15 K, m1 = 0.1456 | 1002.23 | –
293.15 K, m1 = 0.1662 | 1002.78 | –
293.15 K, m1 = 0.1765 | 1003.05 | –
293.15 K, m1 = 0.2502 | 1004.97 | –
293.15 K, m1 = 0.2937 | 1006.09 | –
293.15 K, m1 = 0.3356 | 1007.15 | –
293.15 K, m1 = 0.3802 | 1008.26 | –
298.15 K, m1 = 0.02906 | 997.851 | –
298.15 K, m1 = 0.04398 | 998.255 | –
298.15 K, m1 = 0.0472 | – | 1507.8
298.15 K, m1 = 0.05752 | 998.616 | –
298.15 K, m1 = 0.0722 | 999.019 | –
298.15 K, m1 = 0.07899 | 999.193 | –
298.15 K, m1 = 0.1029 | – | 1519.2
298.15 K, m1 = 0.1182 | 1000.22 | –
298.15 K, m1 = 0.1456 | 1000.93 | –
298.15 K, m1 = 0.1481 | – | 1528.4
298.15 K, m1 = 0.1662 | 1001.47 | –
298.15 K, m1 = 0.1765 | 1001.73 | –
298.15 K, m1 = 0.1974 | – | 1538.3
298.15 K, m1 = 0.2422 | – | 1547.2
298.15 K, m1 = 0.2502 | 1003.6 | –
298.15 K, m1 = 0.2927 | – | 1557.1
298.15 K, m1 = 0.2937 | 1004.66 | –
298.15 K, m1 = 0.3356 | 1005.72 | –
298.15 K, m1 = 0.3455 | – | 1567.6
298.15 K, m1 = 0.3802 | 1006.75 | –
298.15 K, m1 = 0.3987 | – | 1578.2
298.15 K, m1 = 0.4518 | – | 1588.5
298.15 K, m1 = 0.5064 | – | 1599.2
303.15 K, m1 = 0.02906 | 996.433 | –
303.15 K, m1 = 0.04398 | 996.821 | –
303.15 K, m1 = 0.05752 | 997.168 | –
303.15 K, m1 = 0.0722 | 997.554 | –
303.15 K, m1 = 0.07899 | 997.73 | –
303.15 K, m1 = 0.1182 | 998.731 | –
303.15 K, m1 = 0.1456 | 999.436 | –
303.15 K, m1 = 0.1662 | 999.965 | –
303.15 K, m1 = 0.1765 | 1000.2 | –
303.15 K, m1 = 0.2502 | 1002 | –
303.15 K, m1 = 0.2937 | 1003.05 | –
303.15 K, m1 = 0.3356 | 1004.06 | –
303.15 K, m1 = 0.3802 | 1005.08 | –
308.15 K, m1 = 0.03034 | 994.828 | –
308.15 K, m1 = 0.0467 | 995.242 | –
308.15 K, m1 = 0.05983 | 995.575 | –
308.15 K, m1 = 0.07535 | 995.962 | –
308.15 K, m1 = 0.09204 | 996.388 | –
308.15 K, m1 = 0.121 | 997.102 | –
308.15 K, m1 = 0.1452 | 997.702 | –
308.15 K, m1 = 0.1832 | 998.629 | –
308.15 K, m1 = 0.2191 | 999.468 | –
308.15 K, m1 = 0.2631 | 1000.51 | –
308.15 K, m1 = 0.2977 | 1001.31 | –
308.15 K, m1 = 0.3367 | 1002.21 | –
308.15 K, m1 = 0.3802 | 1003.17 | –
313.15 K, m1 = 0.03034 | 992.995 | –
313.15 K, m1 = 0.0467 | 993.401 | –
313.15 K, m1 = 0.05983 | 993.731 | –
313.15 K, m1 = 0.07535 | 994.106 | –
313.15 K, m1 = 0.09204 | 994.515 | –
313.15 K, m1 = 0.121 | 995.217 | –
313.15 K, m1 = 0.1452 | 995.792 | –
313.15 K, m1 = 0.1832 | 996.685 | –
313.15 K, m1 = 0.2191 | 997.538 | –
313.15 K, m1 = 0.2631 | 998.53 | –
313.15 K, m1 = 0.2977 | 999.299 | –
313.15 K, m1 = 0.3367 | 1000.18 | –
313.15 K, m1 = 0.3802 | 1001.15 | –

Source: the NIST ThermoML archive (doi:10.1016/j.jct.2014.07.026)
